Measurements as given in article PMC8072281 (Frontiers in Immunology, 2021).

Tests used:
H-2K^b on RMA/S cells = type: cell-based, murine
[1] = tested on: PPRV-peptide specific CD8+ T cells; set-up: species or system mouse (WT C57BL/6); conditions: mouse, in vivo
[2] = tested on: peptide specific CD8+ T cells; set-up: species or system mouse (C57BL/6); conditions: mouse, in vivo
H-2K^b monomers = H-2K^b monomers (Mus musculus, UniProt P01901); type: binding
H-2K^b monomers, sequence (P01901 whole entry, looked up): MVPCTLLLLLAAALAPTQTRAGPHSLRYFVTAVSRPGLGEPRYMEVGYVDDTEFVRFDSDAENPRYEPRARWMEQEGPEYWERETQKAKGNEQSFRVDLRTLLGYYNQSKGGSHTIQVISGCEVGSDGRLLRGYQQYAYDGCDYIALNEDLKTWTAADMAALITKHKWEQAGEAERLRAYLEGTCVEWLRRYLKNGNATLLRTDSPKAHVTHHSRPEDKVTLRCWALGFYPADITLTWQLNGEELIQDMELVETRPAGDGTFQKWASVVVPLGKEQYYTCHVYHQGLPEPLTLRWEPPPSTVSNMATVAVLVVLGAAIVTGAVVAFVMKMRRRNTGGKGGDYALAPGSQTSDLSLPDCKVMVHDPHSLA

Sequence | stabilization of surface H-2K^b (H-2K^b on RMA/S cells) | tetramer positive CD8+ T cells, frequencies and numbers vs control [1] | magnitude of tetramer positive CD8+ T cells [2] | fold change values of H-2K^b monomer stabilization vs control peptide SIINFEKL (H-2K^b monomers)
FMYLFLLGV | greater levels than the other peptides | not significantly different from the control animals | – | –
FSAGAYPLL | greater levels than the other peptides | significantly higher frequencies and numbers | higher | higher values as compared to other peptides
IEHIFESPL | – | – | – | higher values as compared to other peptides
IGLVRDFGL | greater levels than the other peptides | significantly higher frequencies and numbers | higher | higher values as compared to other peptides
IVVRRTAGV | – | – | – | higher values as compared to other peptides
SSITTRSRL | – | – | – | higher values as compared to other peptides
VAFNILVTL | – | – | – | higher values as compared to other peptides
VILDRERLV | – | – | – | higher values as compared to other peptides
